Assay results taken from patent US6472348B1, “Pyridone derivatives and herbicides” (Kumiai Chemical Industry Co., Ltd., priority 1996, dated 2002).

system: barnyardgrass (Ec); assay: Test Example 3: herbicidal effects by upland field foliage treatment; assay type: in vivo; parameters: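 grade of growth control; 5 = at least 90%; 4 = 70 to 90%; 3 = 50 to 70%; 2 = 30 to 50%; 1 = 10 to 30%; 0 = under 10%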; conditions: 100 g active ingredient per 10 ares, evaluated 14th day after treatment
In short: (§1)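 Two-week-old greenhouse seedlings, raised in sand-filled pots (120 cm^2) with seed covered by soil, receive a foliar application. Effects are then evaluated by standard grades 14 days later, plants remaining in the greenhouse meanwhile.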

Row | SMILES | Herbicidal effects Ec
1 | CC(C)ON=Cc1cc(-c2ccc(C(F)(F)F)n(C)c2=O)c(F)cc1Cl [Compound 1-189] | 5

system: slender amaranth (Am); assay: as above; assay type: in vivo; parameters: scale not given here; conditions: 100 g active ingredient per 10 ares, evaluated 14th day after treatment
In short: as §1

Row | SMILES | Herbicidal effects Am
2 | CC(C)ON=Cc1cc(-c2ccc(C(F)(F)F)n(C)c2=O)c(F)cc1Cl [Compound 1-189] | 5

system: common lambsquarters (Ch); assay: as above; assay type: in vivo; parameters: scale not given here; conditions: 100 g active ingredient per 10 ares, evaluated 14th day after treatment
In short: as §1

Row | SMILES | Herbicidal effects Ch
3 | CC(C)ON=Cc1cc(-c2ccc(C(F)(F)F)n(C)c2=O)c(F)cc1Cl [Compound 1-189] | 5

system: rice flatsedge (Ci); assay: as above; assay type: in vivo; parameters: scale not given here; conditions: 100 g active ingredient per 10 ares, evaluated 14th day after treatment
In short: as §1

Row | SMILES | Herbicidal effects Ci
4 | CC(C)ON=Cc1cc(-c2ccc(C(F)(F)F)n(C)c2=O)c(F)cc1Cl [Compound 1-189] | 5

system: Diaitaria ciliaris (Di); assay: as above; assay type: in vivo; parameters: scale not given here; conditions: 100 g active ingredient per 10 ares, evaluated 14th day after treatment
In short: as §1

Row | SMILES | Herbicidal effects Di
5 | CC(C)ON=Cc1cc(-c2ccc(C(F)(F)F)n(C)c2=O)c(F)cc1Cl [Compound 1-189] | 5

system: pale smartweed (Po); assay: as above; assay type: in vivo; parameters: scale not given here; conditions: 100 g active ingredient per 10 ares, evaluated 14th day after treatment
In short: as §1

Row | SMILES | Herbicidal effects Po
6 | CC(C)ON=Cc1cc(-c2ccc(C(F)(F)F)n(C)c2=O)c(F)cc1Cl [Compound 1-189] | 5

system: soybean (Gl); assay: Test Example 6: crop plant selectivity by upland field soil treatment (soybean), phytotoxicity; assay type: in vivo; parameters: scale not given here; conditions: dose 6.3 g ai/10a, 21st day after application
In short: (§2)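 Greenhouse pot test with soil-applied compound after sowing soybean and weeds in sand; effects graded on day 21 after application.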

Row | SMILES | Phytotoxicity Gl
7 | CC(C)ON=Cc1cc(-c2ccc(C(F)(F)F)n(C)c2=O)c(F)cc1Cl [Compound 1-189] | 1

system: slender amaranth (Am); assay: Test Example 6: crop plant selectivity by upland field soil treatment (soybean), herbicidal effects; assay type: in vivo; parameters: scale not given here; conditions: dose 6.3 g ai/10a, 21st day after application
In short: as §2

Row | SMILES | Herbicidal effects Am
8 | CC(C)ON=Cc1cc(-c2ccc(C(F)(F)F)n(C)c2=O)c(F)cc1Cl [Compound 1-189] | 5

system: common lambsquarters (Ch); assay: as above; assay type: in vivo; parameters: scale not given here; conditions: dose 6.3 g ai/10a, 21st day after application
In short: as §2

Row | SMILES | Herbicidal effects Ch
9 | CC(C)ON=Cc1cc(-c2ccc(C(F)(F)F)n(C)c2=O)c(F)cc1Cl [Compound 1-189] | 5

system: green foxtail (Se); assay: as above; assay type: in vivo; parameters: scale not given here; conditions: dose 6.3 g ai/10a, 21st day after application
In short: as §2

Row | SMILES | Herbicidal effects Se
10 | CC(C)ON=Cc1cc(-c2ccc(C(F)(F)F)n(C)c2=O)c(F)cc1Cl [Compound 1-189] | 5

system: China jute (Ab); assay: as above; assay type: in vivo; parameters: scale not given here; conditions: dose 6.3 g ai/10a, 21st day after application
In short: as §2

Row | SMILES | Herbicidal effects Ab
11 | CC(C)ON=Cc1cc(-c2ccc(C(F)(F)F)n(C)c2=O)c(F)cc1Cl [Compound 1-189] | 5

system: pale smartweed (Po); assay: as above; assay type: in vivo; parameters: scale not given here; conditions: dose 6.3 g ai/10a, 21st day after application
In short: as §2

Row | SMILES | Herbicidal effects Po
12 | CC(C)ON=Cc1cc(-c2ccc(C(F)(F)F)n(C)c2=O)c(F)cc1Cl [Compound 1-189] | 5

system: slender amaranth (Am); assay: Test Example 5: crop plant selectivity by upland field soil treatment (wheat), herbicidal effects; assay type: in vivo; parameters: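 grade of growth control; 5 = at least 90%; 4 = 70 to 90%; 3 = 50 to 70%; 2 = 30 to 50%; 1 = 10 to 30%; 0 = under 10%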; conditions: dose 6.3 g ai/10a, 21st day after application
Experimental: (§3) (Test on Crop Plant Selectivity by Upland Field Soil Treatment)
(§4) In a plastic pot (surface area: 600 cm^2) filled with sand, wheat (Tr), Diaitaria ciliaris (Di), green foxtail (Se), pale smartweed (Po), slender amaranth (Am), common lambsquarters (Ch) and China jute (Ab) were sown and covered with soil. […] The plants were then cultured in a green house, and the evaluation of the herbicidal effects and phytotoxicity was conducted on the 21st day after the application in accordance with the standards as identified in Table 47. Symbol—represents “not tested”.

Row | SMILES | Herbicidal effects Am
13 | CC(C)ON=Cc1cc(-c2ccc(C(F)(F)F)n(C)c2=O)c(F)cc1Cl [Compound 1-189] | 5

system: common lambsquarters (Ch); assay: as above; assay type: in vivo; parameters: scale not given here; conditions: dose 6.3 g ai/10a, 21st day after application
Experimental: as §3, §4

Row | SMILES | Herbicidal effects Ch
14 | CC(C)ON=Cc1cc(-c2ccc(C(F)(F)F)n(C)c2=O)c(F)cc1Cl [Compound 1-189] | 5

system: green foxtail (Se); assay: as above; assay type: in vivo; parameters: scale not given here; conditions: dose 6.3 g ai/10a, 21st day after application
Experimental: as §3, §4

Row | SMILES | Herbicidal effects Se
15 | CC(C)ON=Cc1cc(-c2ccc(C(F)(F)F)n(C)c2=O)c(F)cc1Cl [Compound 1-189] | 5

system: China jute (Ab); assay: as above; assay type: in vivo; parameters: scale not given here; conditions: dose 6.3 g ai/10a, 21st day after application
Experimental: as §3, §4

Row | SMILES | Herbicidal effects Ab
16 | CC(C)ON=Cc1cc(-c2ccc(C(F)(F)F)n(C)c2=O)c(F)cc1Cl [Compound 1-189] | 5

system: pale smartweed (Po); assay: as above; assay type: in vivo; parameters: scale not given here; conditions: dose 6.3 g ai/10a, 21st day after application
Experimental: as §3, §4

Row | SMILES | Herbicidal effects Po
17 | CC(C)ON=Cc1cc(-c2ccc(C(F)(F)F)n(C)c2=O)c(F)cc1Cl [Compound 1-189] | 5

system: slender amaranth (Am); assay: Test Example 7: crop plant selectivity by upland field soil treatment (corn), herbicidal effects; assay type: in vivo; parameters: scale not given here; conditions: dose 6.3 g ai/10a, 21st day after application
Experimental: as §3
(§5) In a plastic pot (surface area: 600 cm^2) filled with sand, corn (Ze), green foxtail (Se), pale smartweed (Po), slender amaranth (Am), common lambsquarters (Ch) and China jute (Ab) were sown and covered with soil. […] The plants were then cultured in a green house, and the evaluation of the herbicidal effects and phytotoxicity was conducted on the 21st day after the application in accordance with the standards as identified in Table 47.

Row | SMILES | Herbicidal effects Am
18 | CC(C)ON=Cc1cc(-c2ccc(C(F)(F)F)n(C)c2=O)c(F)cc1Cl [Compound 1-189] | 5

system: common lambsquarters (Ch); assay: as above; assay type: in vivo; parameters: scale not given here; conditions: dose 6.3 g ai/10a, 21st day after application
Experimental: as §3, §5

Row | SMILES | Herbicidal effects Ch
19 | CC(C)ON=Cc1cc(-c2ccc(C(F)(F)F)n(C)c2=O)c(F)cc1Cl [Compound 1-189] | 5
